Marks after values point to notes of the source that are not given here.
Tests used:
Assay type in all cases: in vivo, mouse (male C57BL/6J)
[1] = test system: gene expression in the mouse intestine; experiment: Gene expression in mouse intestine (microarray) with dietary selenium vs selenium deficient diet; conditions: diet 1 ppm Se for 100 days vs selenium deficient diet
Source text: (§1) Animal Care. Male C57BL/6J mice were housed singly and started on the experimental diets described below immediately after weaning (21 days of age). The mice were maintained in the Shared Aging Rodent Facility at the William S. Middleton Memorial Veterans Administration Medical Center (Madison, Wis.). Temperature and humidity were maintained at constant levels. Room light was controlled to provide 12-hr cycles of light and dark.
(§2) Experimental diets were created by Harlan Teklad (Madison, Wis.). Selenium content of the diets was determined by Covance Inc. (Madison, Wis.). Five (5) animals were included in each of the following treatment groups: a diet deficient in selenium (SD); a diet supplemented with selenomethionine (SM, obtained from Sigma, St. Louis, Mo.) such that the final selenium content of the diet was one (1) part per million; a diet supplemented with sodium selenite (SS, Sigma) such that the final concentration of selenium in this diet was one (1) part per million; or a diet supplemented with the yeast selenium SEL-PLEX (SP, Alltech, Lexington, Ky.), such that the final concentration of selenium in this diet was one (1) part per million. SEL-PLEX. Mice were provided with water and their respective diet ad libitum for 100 days. Diets were stored at the dark at 4° C. and fresh diet was added to feeder twice weekly.
(§3) Tissue sample preparation and microarray analysis. Mice were killed at 100 days of age by cervical dislocation. For intestinal expression studies, the intestine was flushed twice with saline solution and small intestine was measured and divided in three equal segments. A 3-cm region of the middle segment of the small intestine corresponding to the jejunum (˜300 mg of tissue) was cut and rinsed again with physiological saline to completely remove contents, flash frozen in liquid nitrogen and stored at −80° C. For brain (e.g., cerebral cortex) studies, the cerebral cortex was separated from the surrounding brain tissue and was flash frozen in liquid nitrogen and stored at −80° C.
(§4) Total RNA was isolated from using the guanidinium isothiocyanate method of TRIZOL (Life Technologies, Grand Island, N.Y.) and individual samples were used for gene expression profiles. Total RNA was cleaned up by RNeasy Mini kit (Qiagen, Valencia, Calif.). Target RNA was prepared by converting […] total RNA into double-strand cDNA using GeneChip Expression 3′-Amplification Reagents One-Cycle cDNA Synthesis Kit (Affymetrix, Santa Clara, Calif.) with a T7-(dT)24 primer incorporating a T7 RNA polymerase promoter. After cleaning up double-strand cDNA using Genechip Sample Cleanup Module (Affymetrix, Santa Clara, Calif.), biotin-labeled cRNA was synthesized from double-strand cDNA using GeneChip Expression 3′-Amplification Reagents for IVT Labeling (Affymetrix, Santa Clara, Calif.). The biotin-labeled cRNA was cleaned up using Genechip Sample Cleanup Module and was fragmented by heating (35 min at 94° C.).
(§5) Fifteen (15) μg of cRNA fragments were hybridized (16 h at 45° C.) to Mouse Genome 430 2.0 Array (Affymetrix, Santa Clara, Calif.) using GeneChip Hybridization Oven 640. After hybridization, the gene chips were automatically washed and stained with streptavidin-phycoerythrin biotinylated anti-streptavidin using Affymetrix GeneChip Fluidics Station 450. The DNA chips were scanned with Affymetrix GeneChip Scanner 3000 (Affymetrix, Santa Clara, Calif.) to detect the cell signal intensities by laser. All calculations were performed with Affymetrix GeneChip Operating Software (GCOS) version 1.3 after scanning.
(§6) • 1. The spreadsheet containing probe set identifiers and signal intensity values was opened in Microsoft Excel (version 11.1.1 for the Macintosh OS-X operating system) and summary statistics were generated (mean signal intensity for each treatment group, standard error of the mean). Two-tailed t-tests (equal variance) were performed for the following treatment groups: SM vs. SD, SS vs. SD, and SP vs. SD. […]

[2] = Body weight of mice on selenium diets
Source text: as §1
Experimental diets were created by Harlan Teklad (Madison, Wis.). Selenium content of the diets was determined by Covance Inc. (Madison, Wis.). […]
Thus, it was an object of the present invention to determine whether compositions and methods of the present invention could alter the expression levels (e.g., mRNA levels) of various genes. One group of genes analyzed were genes classically associated with selenium. As described above, the expression levels of genes were analyzed between mice with and without dietary selenium, or, between mice fed different sources of selenium) (See, e.g., Table 1, below).

[3] = test system: brain (cerebral cortex) gene expression; experiment: Gene expression in mouse brain (cerebral cortex, microarray) with dietary selenium vs selenium deficient diet; conditions: diet 1 ppm Se for 100 days vs selenium deficient diet
Source text: as §1, §2, §3, §4, §5, §6

Q: For C[Se]CC[C@H](N)C(=O)O [SeM, selenomethionine], which “Glutathione Peroxidase 1 gene expression, fold change (FC)” value [1] is on record?
A: 4.9 fold

Q: What about the “Glutathione Peroxidase 3 gene expression, fold change (FC)” value [1] of the same compound?
A: 4.6 fold

Q: And the “Glyoxalase 1 (Glo1) expression, fold reduction” value [1]?
A: not significantly affected

Q: And the “Growth arrest and DNA-damage-inducible 45 gamma (Gadd45g) expression, FC” value [1]?
A: −1.5 fold

Q: What about the “LIM homeobox protein 8 gene (Lhx8) expression, fold upregulation” value [1] of the same compound?
A: not significantly different

Q: What about the “Neurogenin 3 (Neurog3) expression, fold upregulation” value [1] of the same compound?
A: no significant alteration

Q: And the “Prohibitin (Phb) expression, fold upregulation” value [1]?
A: 1.6 fold

Q: What about the “SelR (Selenoprotein X1) gene expression, fold upregulation” value [1] of the same compound?
A: not significantly affected

Q: And the “Selenoprotein W (SelW) expression, fold upregulation” value [1]?
A: not significantly altered

Q: And the “Thioredoxin Reductase 1 gene expression, fold increase” value [1]?
A: 1.8 fold

Q: What about the “expression pattern of GST genes (summary in words)” value [1] of the same compound?
A: no alteration

Q: What about the “selenoprotein N1 (Sepn1) gene expression, fold increase” value [1] of the same compound?
A: not significantly affected

Q: And the “sprouty homolog 2 gene (Spry2) expression, fold reduction” value [1]?
A: no alteration

Q: What about the “transforming growth factor beta 2 (TGF-β2) expression, fold upregulation” value [1] of the same compound?
A: not altered

Q: What about the “type II iodothyronine deiodinase (Dio2) expression, fold down-regulation” value [1] of the same compound?
A: no ability to alter

Q: And the “Gadd45g1p expression in intestinal tissue (in words)” value ([1]; p<0.05)?
A: decreased expression

Q: And the “body weights of mice” value ([2]; mouse, in vivo)?
A: No significant differences

Q: And the “CORS-26 expression, fold reduction” value ([3]; cerebral cortex)?
A: no alteration

Q: What about the “Complement component 1, q subcomponent, gamma polypeptide, C1qg expression, FC” value ([3]; cerebral cortex) of the same compound?
A: 1.0 fold

Q: And the “expression of complement component genes (summary in words)” value ([3]; cerebral cortex)?
A: did not provide a statistically significant alteration

Q: For O=[Se](O)O [Sod-sel, sodium selenite], which “Cu chaperone for SOD (CCS) expression, fold enhancement” value [1] is on record?
A: 1.28 fold

Q: And the “Glutathione Peroxidase 1 gene expression, fold change (FC)” value [1]?
A: 4.1 fold

Q: What about the “Glutathione Peroxidase 3 gene expression, fold change (FC)” value [1] of the same compound?
A: 3.5 fold

Q: What about the “Glutathione S-transferase, alpha 3 (Gsta3) expression, FC” value [1] of the same compound?
A: −2.3 fold

Q: What about the “Glutathione S-transferase, mu 1 (Gstm1) expression, FC” value [1] of the same compound?
A: −2.4 fold

Q: What about the “Glutathione S-transferase, mu 2 (Gstm2) expression, FC” value [1] of the same compound?
A: −2.1 fold

Q: What about the “Glutathione S-transferase, mu 3 (Gstm3) expression, FC” value [1] of the same compound?
A: −2.7 fold

Q: And the “Glutathione S-transferase, theta 2 (Gstt2) expression, FC” value [1]?
A: −1.3 fold

Q: What about the “Growth arrest and DNA-damage-inducible 45 gamma (Gadd45g) expression, FC” value [1] of the same compound?
A: −2.0 fold

Q: What about the “SOD1 expression, fold enhancement” value [1] of the same compound?
A: 1.92 fold

Q: And the “SelR (Selenoprotein X1) gene expression, fold upregulation” value [1]?
A: 1.3 fold

Q: What about the “Selenoprotein W (SelW) expression, fold upregulation” value [1] of the same compound?
A: 5.1 fold

Q: And the “Thioredoxin Reductase 1 gene expression, fold increase” value [1]?
A: 1.7 fold

Q: And the “Type 1 iodothyronine deiodinase expression level, fold increase” value [1]?
A: 2.8 fold

Q: And the “body weights of mice” value ([2]; diets with 1 ppm Se vs selenium deficient diet, FIG. 1)?
A: No significant differences

Q: What about the “Gadd45b expression, FC” value ([3]; brain) of the same compound?
A: −1.39* fold

Q: And the “Gadd45g1p (Growth arrest and DNA-damage inducible 45 gamma interacting protein) expression, FC” value ([3]; brain)?
A: −1.12 fold

Q: And the “Gst mu 7 (Gstm7) expression, FC” value ([3]; brain)?
A: −1.25* fold

Q: And the “Gst pi 1 (Gstp1) expression, FC” value ([3]; brain)?
A: 1.02 fold

Q: What about the “Gst zeta 1 (Gstz1) expression, FC” value ([3]; brain) of the same compound?
A: −1.3 fold

Q: And the “Amyloid beta (A4) precursor protein-binding, family A, member 1 (Apba1) expression, FC” value ([3]; cerebral cortex)?
A: −1.41 fold

Q: And the “Amyloid beta (A4) precursor protein-binding, family B, member 1 (Apbb1 or Fe65) expression, FC” value ([3]; cerebral cortex)?
A: −1.32* fold

Q: What about the “Amyloid beta (A4) precursor-like protein (Aplp 1) expression, FC” value ([3]; cerebral cortex) of the same compound?
A: −1.55* fold

Q: And the “Cathepsin B expression, FC” value ([3]; cerebral cortex)?
A: −1.13* fold

Q: What about the “Cathepsin D expression, FC” value ([3]; cerebral cortex) of the same compound?
A: −1.24* fold

Q: What about the “Cathepsin O expression, FC” value ([3]; cerebral cortex) of the same compound?
A: −1.18 fold

Q: And the “Cathepsin Z expression, FC” value ([3]; cerebral cortex)?
A: −1.30* fold

Q: What about the “Complement component 1, q subcomponent binding protein, C1qbp expression, FC” value ([3]; cerebral cortex) of the same compound?
A: 1.11 fold

Q: What about the “Complement component 1, q subcomponent, alpha polypeptide, C1qa expression, FC” value ([3]; cerebral cortex) of the same compound?
A: −1.18 fold

Q: What about the “Complement component 1, q subcomponent, beta polypeptide, expression, FC” value ([3]; cerebral cortex) of the same compound?
A: −1.35 fold

Q: And the “Complement component 1, q subcomponent, gamma polypeptide, C1qg expression, FC” value ([3]; cerebral cortex)?
A: −1.07 fold

Q: What about the “Complement component 1, r subcomponent, C1r expression, FC” value ([3]; cerebral cortex) of the same compound?
A: −1.29 fold

Q: What about the “Junb expression, FC” value ([3]; cerebral cortex) of the same compound?
A: −1.59 fold

Q: What about the “Nicastrin expression, FC” value ([3]; cerebral cortex) of the same compound?
A: −1.67* fold

Q: And the “Presenilin 1 expression, FC” value ([3]; cerebral cortex)?
A: −1.11 fold
